Reference: patent publication US20070021325A1, “Drug formulation containing a solubilizer for enhancing solubility, absorption, and permeability” (Mediplex Corporation, priority 2005, published 2007)

Assay: Oral absorption of encapsulated DMSO-bound heparin-DOCA in monkeys (FIG. 5)
Format: in vivo
Settings: in buffer, 100 mg/kg (control)
Procedure: DMSO-bound heparin-DOCA prepared according to the method of Example 1 was encapsulated and then administered orally to monkeys at either 5 mg/kg or 10 mg/kg dosages. As a control, heparin in buffer was orally administered at 100 mg/kg.

- absorption after oral administration: negligible
Substance: heparin
